{"source": "paper PMC11206519", "about": "“Multi-Endpoint Toxicological Assessment of Chrysin Loaded Oil-in-Water Emulsion System in Different Biological Models” (Nanomaterials, 2024)", "key": {"[1]": {"system": "D. melanogaster trans-heterozygous mwh+/+flr3 larvae of the ST cross", "test": "SMART wing spot test, mutagenicity, ST cross", "type": "in vivo, Drosophila melanogaster", "conditions": "for Statistical diagnosis, Small Single / Statistical diagnosis, Total Spots: vs DI", "experimental": "(§1) The somatic mutation and recombination test, or the wing spot test, using D. melanogaster was employed as an in vivo system to assess the mutagenicity and anti-mutagenicity of chrysin-ES. Two different crosses were conducted: (i) a standard cross (ST) and (ii) a high bioactivation cross (HB) [18]. The standard cross larvae were obtained from virgin female of flr3/TM3, Ser crossed with males of mwh/mwh, while the HB cross larvae expressing cytochrome P450 enzymes involved in xenobiotic biotransformation were obtained from virgin females of ORR/ORR; flr^3/In (3LR) TM3, ri p^psep l (3)89Aa bx^34e e Bd^s crossed with males of mwh/mwh. The flies were cultured at a constant temperature of 25 ± 1 °C and 60–70% RH at photoperiod 12:12 (light/dark). To evaluate the mutagenicity of chrysin and chrysin-ES, a hundred larva F1 progenies derived from the above crossing were fed with instant Drosophila medium (Formula 4-24®), Carolina, Burlington, NC, USA) containing chrysin or chrysin-ES (20–120 µg/mL). DI was used as a negative control, while 20 mM urethane (URE) was used as a positive control. The larvae were reared on each medium until pupation at 25 °C. After that, forty wings of surviving flies in each group were collected for mutant analysis. The mutant spots on the wings, including small single spots, large single spots, and twin spots, were counted."}, "[2]": {"system": "D. melanogaster trans-heterozygous mwh+/+flr3 larvae of the HB cross", "test": "SMART wing spot test, mutagenicity, HB cross", "type": "in vivo, Drosophila melanogaster", "experimental": "as §1"}, "[3]": {"system": "D. melanogaster trans-heterozygous mwh+/+flr3 larvae of the ST cross", "test": "SMART wing spot test, anti-mutagenicity, ST cross", "procedure": "The somatic mutation and recombination test, or the wing spot test, using D. melanogaster was employed as an in vivo system to assess the mutagenicity and anti-mutagenicity of chrysin-ES. Two different crosses were conducted: (i) a standard cross (ST) and (ii) a high bioactivation cross (HB). The standard cross larvae were obtained from virgin female of flr3/TM3, Ser crossed with males of mwh/mwh, while the HB cross larvae expressing cytochrome P450 enzymes involved in xenobiotic biotransformation were obtained from virgin females of ORR/ORR; flr^3/In (3LR) TM3, ri p^psep l (3)89Aa bx^34e e Bd^s crossed with males of mwh/mwh. The flies were cultured at a constant temperature of 25 ± 1 °C and 60–70% RH at photoperiod 12:12 (light/dark). To evaluate the mutagenicity of chrysin and chrysin-ES, a hundred larva F1 progenies derived from the above crossing were fed with instant Drosophila medium (Formula 4-24®), Carolina, Burlington, NC, USA) containing chrysin or chrysin-ES (20–120 µg/mL). DI was used as a negative control, while 20 mM urethane (URE) was used as a positive control. The larvae were reared on each medium until pupation at 25 °C. After that, forty wings of surviving flies in each group were collected for mutant analysis. The mutant spots on the wings, including small single spots, large single spots, and twin spots, were counted. The statistical significance was calculated as previously described by Frei and Würgler.\nFurthermore, the anti-mutagenicity of the samples was performed by a similar procedure as mentioned above."}}, "data": [{"smiles": "O=c1cc(-c2ccccc2)oc2cc(O)cc(O)c12", "note": "[Chrysin, 5,7-dihydroxyflavone]", "values": [{"measurement": "Mutant spots per individual (number of spots), Large Single", "setting": "[1]; 20 µg/mL", "value": "0 (0)"}, {"measurement": "Mutant spots per individual (number of spots), Small Single", "setting": "[1]; 20 µg/mL", "value": "0.38 (15)"}, {"measurement": "Mutant spots per individual (number of spots), Total Spots", "setting": "[1]; 20 µg/mL", "value": "0.38 (15)"}, {"measurement": "Mutant spots per individual (number of spots), Twin", "setting": "[1]; 20 µg/mL", "value": "0 (0)"}, {"measurement": "Statistical diagnosis, Small Single", "setting": "[1]; 20 µg/mL", "value": "−"}, {"measurement": "Statistical diagnosis, Total Spots", "setting": "[1]; 20 µg/mL", "value": "−"}, {"measurement": "Mutant spots per individual (number of spots), Large Single", "setting": "[1]; 40 µg/mL", "value": "0.03 (1)"}, {"measurement": "Mutant spots per individual (number of spots), Total Spots", "setting": "[1]; 40 µg/mL", "value": "0.38 (15)"}, {"measurement": "Mutant spots per individual (number of spots), Twin", "setting": "[1]; 40 µg/mL", "value": "0 (0)"}, {"measurement": "Statistical diagnosis, Small Single", "setting": "[1]; 40 µg/mL", "value": "−"}, {"measurement": "Statistical diagnosis, Total Spots", "setting": "[1]; 40 µg/mL", "value": "−"}, {"measurement": "Mutant spots per individual (number of spots), Large Single", "setting": "[1]; 80 µg/mL", "value": "0 (0)"}, {"measurement": "Mutant spots per individual (number of spots), Small Single", "setting": "[1]; 80 µg/mL", "value": "0.58 (23)"}, {"measurement": "Mutant spots per individual (number of spots), Total Spots", "setting": "[1]; 80 µg/mL", "value": "0.58 (23)"}, {"measurement": "Mutant spots per individual (number of spots), Twin", "setting": "[1]; 80 µg/mL", "value": "0 (0)"}, {"measurement": "Statistical diagnosis, Small Single", "setting": "[1]; 80 µg/mL", "value": "−"}, {"measurement": "Statistical diagnosis, Total Spots", "setting": "[1]; 80 µg/mL", "value": "−"}, {"measurement": "Mutant spots per individual (number of spots), Large Single", "setting": "[1]; 120 µg/mL", "value": "0.08 (3)"}, {"measurement": "Mutant spots per individual (number of spots), Small Single", "setting": "[1]; 120 µg/mL", "value": "0.83 (33)"}, {"measurement": "Mutant spots per individual (number of spots), Total Spots", "setting": "[1]; 120 µg/mL", "value": "0.90 (36)"}, {"measurement": "Mutant spots per individual (number of spots), Twin", "setting": "[1]; 120 µg/mL", "value": "0 (0)"}, {"measurement": "Statistical diagnosis, Small Single", "setting": "[1]; 120 µg/mL", "value": "−"}, {"measurement": "Statistical diagnosis, Total Spots", "setting": "[1]; 120 µg/mL", "value": "−"}, {"measurement": "mutagenicity in SMART", "setting": "[1]; 20–120 μg/mL, ST and HB cross", "value": "non-mutagenic"}, {"measurement": "Mutant spots per individual (number of spots), Large Single", "setting": "[2]; 20 µg/mL", "value": "0.03 (1)"}, {"measurement": "Mutant spots per individual (number of spots), Total Spots", "setting": "[2]; 20 µg/mL", "value": "0.23 (9)"}, {"measurement": "Mutant spots per individual (number of spots), Twin", "setting": "[2]; 20 µg/mL", "value": "0.03 (1)"}, {"measurement": "Mutant spots per individual (number of spots), Large Single", "setting": "[2]; 40 µg/mL", "value": "0.03 (1)"}, {"measurement": "Mutant spots per individual (number of spots), Total Spots", "setting": "[2]; 40 µg/mL", "value": "0.15 (6)"}, {"measurement": "Mutant spots per individual (number of spots), Twin", "setting": "[2]; 40 µg/mL", "value": "0 (0)"}, {"measurement": "Mutant spots per individual (number of spots), Large Single", "setting": "[2]; 80 µg/mL", "value": "0.03 (1)"}, {"measurement": "Mutant spots per individual (number of spots), Total Spots", "setting": "[2]; 80 µg/mL", "value": "0.15 (6)"}, {"measurement": "Mutant spots per individual (number of spots), Twin", "setting": "[2]; 80 µg/mL", "value": "0 (0)"}, {"measurement": "Mutant spots per individual (number of spots), Large Single", "setting": "[2]; 120 µg/mL", "value": "0 (0)"}, {"measurement": "Mutant spots per individual (number of spots), Small Single", "setting": "[2]; 120 µg/mL", "value": "0.08 (3)"}, {"measurement": "Mutant spots per individual (number of spots), Total Spots", "setting": "[2]; 120 µg/mL", "value": "0.08 (3)"}, {"measurement": "Mutant spots per individual (number of spots), Twin", "setting": "[2]; 120 µg/mL", "value": "0 (0)"}, {"measurement": "Statistical diagnosis, Small Single", "setting": "[2]; 120 µg/mL, vs DI", "value": "−"}, {"measurement": "Statistical diagnosis, Total Spots", "setting": "[2]; 120 µg/mL, vs DI", "value": "−"}, {"measurement": "inhibition of MMC mutagenicity", "setting": "[3]; 40–80 µg/mL", "value": "approximately 30%"}, {"measurement": "Inhibition (%)", "setting": "[3]; EMS 5 mM + 20 μg/mL", "value": 19, "unit": "%"}, {"measurement": "Inhibitory Classification", "setting": "[3]; EMS 5 mM + 20 μg/mL", "value": "Negligible"}, {"measurement": "Mutant spots per individual (number of spots), Large Single", "setting": "[3]; EMS 5 mM + 20 μg/mL", "value": "1.28 (51)"}, {"measurement": "Mutant spots per individual (number of spots), Small Single", "setting": "[3]; EMS 5 mM + 20 μg/mL", "value": "4.88 (195)"}, {"measurement": "Mutant spots per individual (number of spots), Total", "setting": "[3]; EMS 5 mM + 20 μg/mL", "value": "6.35 (254)"}, {"measurement": "Mutant spots per individual (number of spots), Twin", "setting": "[3]; EMS 5 mM + 20 μg/mL", "value": "0.20 (8)"}, {"measurement": "Inhibition (%)", "setting": "[3]; EMS 5 mM + 40 μg/mL", "value": 46, "unit": "%"}, {"measurement": "Inhibitory Classification", "setting": "[3]; EMS 5 mM + 40 μg/mL", "value": "Moderate"}, {"measurement": "Mutant spots per individual (number of spots), Large Single", "setting": "[3]; EMS 5 mM + 40 μg/mL", "value": "0.93 (37)"}, {"measurement": "Mutant spots per individual (number of spots), Total", "setting": "[3]; EMS 5 mM + 40 μg/mL", "value": "4.20 (168)"}, {"measurement": "Mutant spots per individual (number of spots), Twin", "setting": "[3]; EMS 5 mM + 40 μg/mL", "value": "0.35 (14)"}, {"measurement": "Inhibition (%)", "setting": "[3]; EMS 5 mM + 80 μg/mL", "value": 49, "unit": "%"}, {"measurement": "Inhibitory Classification", "setting": "[3]; EMS 5 mM + 80 μg/mL", "value": "Moderate"}, {"measurement": "Mutant spots per individual (number of spots), Large Single", "setting": "[3]; EMS 5 mM + 80 μg/mL", "value": "0.35 (14)"}, {"measurement": "Mutant spots per individual (number of spots), Small Single", "setting": "[3]; EMS 5 mM + 80 μg/mL", "value": "3.50 (140)"}, {"measurement": "Mutant spots per individual (number of spots), Total", "setting": "[3]; EMS 5 mM + 80 μg/mL", "value": "3.95 (158)"}, {"measurement": "Mutant spots per individual (number of spots), Twin", "setting": "[3]; EMS 5 mM + 80 μg/mL", "value": "0.10 (4)"}, {"measurement": "Inhibition (%)", "setting": "[3]; EMS 5 mM + 120 μg/mL", "value": 42, "unit": "%"}, {"measurement": "Inhibitory Classification", "setting": "[3]; EMS 5 mM + 120 μg/mL", "value": "Moderate"}, {"measurement": "Mutant spots per individual (number of spots), Large Single", "setting": "[3]; EMS 5 mM + 120 μg/mL", "value": "0.88 (35)"}, {"measurement": "Mutant spots per individual (number of spots), Small Single", "setting": "[3]; EMS 5 mM + 120 μg/mL", "value": "3.40 (136)"}, {"measurement": "Mutant spots per individual (number of spots), Total", "setting": "[3]; EMS 5 mM + 120 μg/mL", "value": "4.55 (182)"}, {"measurement": "Mutant spots per individual (number of spots), Twin", "setting": "[3]; EMS 5 mM + 120 μg/mL", "value": "0.28 (11)"}, {"measurement": "Inhibition (%)", "setting": "[3]; MMC 0.05 mM + 20 μg/mL", "value": "−1", "unit": "%"}, {"measurement": "Mutant spots per individual (number of spots), Large Single", "setting": "[3]; MMC 0.05 mM + 20 μg/mL", "value": "1.45 (58)"}, {"measurement": "Mutant spots per individual (number of spots), Small Single", "setting": "[3]; MMC 0.05 mM + 20 μg/mL", "value": "8.05 (322)"}, {"measurement": "Mutant spots per individual (number of spots), Total", "setting": "[3]; MMC 0.05 mM + 20 μg/mL", "value": "9.85 (394)"}]}]}
